Patent US20090328239A1, “BLOOD VESSEL IMAGING AND USES THEREFOR” (Bio Tree Systems, Inc., priority 2006, published 2009)

Columns and labels:
[1] = test system: human non-small cell lung tumor cell line (A549) xenotopic tumor; assay: Tumor volume in xenotopic tumor model (caliper measurement); type: in vivo, mice (SCID); settings: 0.5 mg/kg i.p. twice a week; end-point 1.5 weeks after initial treatment; vs saline/PBS control
Experimental: A tumor model can be generated by inoculating human non-small cell lung tumor cell line (A549 from ATCC, Inc.) subcutaneously in immunodeficient mice (SCID). SCID male mice (6-8 weeks old from Charles River Inc.) are inoculated subcutaneously in the lower back with a suspension of 1×10^6 human lung tumor cells (A549) in 0.2 ml of PBS. All mice are fed normal chow diet throughout the duration of the experiment. All mice weights are measured throughout the experiment. Tumor size is measured with calipers twice-a-week and tumor volume is calculated using the formula Length^2×Width×0.52. All mice are randomized into two treatment groups (approximately 10 mice per group) when the median tumor volume reaches approximately 500 mm^3. The treatment groups can be treated according to the following schedule using intraperitoneal (i.p.) administration of either a control composition or an anti-angiogenic compound. […]
(§1) Xenotopic mouse models obtained as described in Example 2 were treated with either a control solution of saline/PBS or an anti-angiogenic preparation of Avastin® at 0.5 mg/kg/i.p. as described above. At the end-point, vascular casts were prepared as described in Example 3 above and analyzed for two treated mice (both treated with Avastin® at 0.5 mg/kg/i.p.) and one control mouse. […]

[2] = test system: human non-small cell lung tumor cell line (A549) xenotopic tumor; assay: Vascular cast micro-CT analysis of blood vessel diameter distribution in xenotopic tumor model; type: in vivo, mice (SCID); settings: 0.5 mg/kg i.p., vascular casts
Experimental: A tumor model can be generated by inoculating human non-small cell lung tumor cell line (A549 from ATCC, Inc.) subcutaneously in immunodeficient mice (SCID). SCID male mice (6-8 weeks old from Charles River Inc.) are inoculated subcutaneously in the lower back with a suspension of 1×10^6 human lung tumor cells (A549) in 0.2 ml of PBS. All mice are fed normal chow diet throughout the duration of the experiment. All mice weights are measured throughout the experiment. Tumor size is measured with calipers twice-a-week and tumor volume is calculated using the formula Length^2×Width×0.52. All mice are randomized into two treatment groups (approximately 10 mice per group) when the median tumor volume reaches approximately 500 mm^3. The treatment groups can be treated according to the following schedule using intraperitoneal (i.p.) administration of either a control composition or an anti-angiogenic compound. For example, different levels of an anti-angiogenic compound can be used and the results compared to a control group that is not treated with an anti-angiogenic compound (e.g., Avastin® available from Genentech, South San Francisco, Calif.). For example:
At the end-point, all mice are anesthetized and systemically perfused with a casting agent.
Perfusion with a casting agent, Mercox (available from Ladd Research, Williston, Vt.) can be performed as follows. An initial anticoagulation step for each animal is performed using an i.v. injection of heparin (10,000 U/ml, 0.3 cc/mouse). After 30 minutes, the animals are anesthetized. Each animal's heart is cannulated and the animal perfused with warm physiological saline at physiological pressure (with an open vein draining the organ or with an open vena cava). Perfusion is continued until the organ or animal is clear of blood. Mercox monomer is filtered through a 0.5 μm filter and a casting resin is prepared by mixing 8 ml Mercox, 2 ml methylmethacrylate, and 0.3 ml catalyst. The resin is infused through the same cannula until the onset of polymerization (the resin changes color to brown and emits heat, ˜10 min). The organ or animal is carefully immersed in a 60° C. water bath for 2 hours (or overnight in a sealed container). […] The resulting cast can be analyzed to identify one or more structural characteristics of interest.
as §1

Avastin®: known monoclonal antibody against vascular endothelial growth factor (VEGF), angiogenesis inhibitor available from Genentech
Mean tumor volumes, treated vs control group at the end of the experiment [1]: did not differ significantly | Vessel population ratio between large (approximately 147-161 μm) and middle (approximately 33-77 μm) size vessels (FIG. 3) ([2]; treated vs control animals): decreased | Vessel population ratio between small (approximately 21-35 μm) and middle (approximately 35-49 μm) size vessels (FIG. 2) ([2]; treated vs control animals): decreased | Percentage of middle diameter sized vessels in treated tumors vs untreated tumors (FIG. 1) ([2]; two treated mice vs one control mouse): higher percentage | Reduction in small diameter sized vessels in treated tumors vs untreated tumors (FIG. 1) ([2]; two treated mice vs one control mouse, bins 13.8 μm wide): 20%
